Laboratory results as given in patent US4957927A, “(Diarylmethoxy alkyl)-1-pyrrolidines and piperidines having cardiovascular activity” (Lipha, Lyonnaise Industrielle Pharmaceutique, priority 1988, dated 1990).
Where a name gives a salt, the structure may show the parent alone.

Experiments:
[1] = test system: isolated depolarized artery of the rabbit's ear; assay: decrease in perfusion pressure (calcium-inhibitive effect) on the isolated depolarized artery of the rabbit's ear; conditions: Table 1; single dose of 10 μg injected into the perfusion system; hyperpotassic depolarizing solution; average of at least three artery fragments; measured at peak of action
Method: The calcium-inhibitive effect was researched in vitro using the method described by J. M. Van Neuten (Eur. J. Pharmacol., 1969, 6, 286) on the isolated depolarized artery of the rabbit's ear:
A fragment of the central artery of the ear was cannulated and suspended in 100 ml of a Tyrode solution [NaCl: 136.90 mmole/l; KCl: 2.68 mmole/l; CaCl2 : 3.60 mmole/l; MgCl2 : 1.04 mmole/l; NaH2 PO4 : 0.42 mmole/l; glucose: 5.55 mmole/l, NaHCO3 : 11.90 mmole/l ]. The fragment was oxygenated (O2 : 95%; CO2 : 5%) and perfused with a constant 2-ml/minute flow of Tyrode at 37° C. Pressure changes in the perfusion circuit were recorded continuously using a pressure sensor. After an equilibration period, the Tyrode was replaced with a hyperpotassic depolarizing solution [NaCl: 39.33 mmole/l; KCl: 99.83 mmole/l; CaCl2 : 3.60 mmole/l; MgCl2 : 1.04 mmole/l; NaH2 PO4 : 0.42 mmole/l; glucose: 5.55 mmole/l; NaHCO3 : 11.90 mmole/l ], which, because of intracellular calcium penetration, caused significant and durable vasoconstriction, antagonized by a calcium inhibitor. The products according to the invention were tested in a single dose of 10 μg administered by injection into the perfusion system, at a rate of 0.1 ml for 10 seconds. […] The effects of the products according to the invention on vasoconstriction induced by the hyperpotassic solution were monitored for several hours. The intensity was measured at the peak of their action.
Each product was tested on at least three artery fragments. Table I includes the average decreases in perfusion pressure observed for a few products according to the invention.

[2] = acute oral toxicity (lethal dose 50) in rats; conditions: rat, in vivo
Text: Thus, the compound in example 10 has a lethal dose 50 in rats greater than 1 g/kg when administered orally.

[3] = molecular target: calmodulin (Bos taurus, UniProt P62157); assay: anti-calmodulin activity (calmodulin activation of Type I cardiac phosphodiesterase); assay type: biochemical
Method: The principle of the method used is the activating effect calmodulin has on the basic enzyme activity of Type I cardiac phosphodiesterase (H. C. Ho et al., Biochim. Biophys. Acta 1976, 429, 461). Enzyme activity is measured using the W. J. Thomson and H. M. Appleman technique (Biochemistry, 1971, 10, 311).

Structure (SMILES) | % drop in perfusion pressure ± standard error [1] [%] | LD50 [2] [mg/kg] | IC50 [3] [µM]
CC(C)Oc1cccc(C2CCN(CCOC(c3ccc(F)cc3)c3ccc(F)cc3)C2)c1 (stereo not shown) [Example 14, 1-[2-[bis(4-fluorophenyl)methoxy]ethyl]-3-(3-isopropoxyphenyl)pyrrolidine] | 54 ± 5 | – | –
COc1cccc(C2CCN(CCOC(c3ccccc3)c3ccccc3)C2)c1.O=C(O)C(=O)O (stereo not shown) [Example 1, 1-[2-(diphenylmethoxy)ethyl]-3-(3-methoxyphenyl)pyrrolidine oxalate] | 56 ± 6 | – | –
COc1cc(OC)cc(C2CCN(CCOC(c3ccc(F)cc3)c3ccc(F)cc3)C2)c1 (stereo not shown) [Example 15, 1-[2-[bis(4-fluorophenyl)methoxy]ethyl]-3-(3,5-dimethoxyphenyl)pyrrolidine fumarate] | 52 ± 5 | – | –
COc1ccc(C2CCN(CCOC(c3ccccc3)c3ccccc3)C2)cc1OC (stereo not shown) [Example 4, 3-(3,4dimethoxyphenyl)-1-[2-diphenylmethoxy)ethyl]pyrrolidine oxalate] | 54 ± 5 | – | –
COc1cccc(C2CCCN2CCOC(c2ccccc2)c2ccccc2)c1 (stereo not shown) [Example 11, 1-[2-(diphenylmethoxy)ethyl]-2-(3-methoxyphenyl)pyrrolidine] | 56 ± 5 | – | –
COc1ccccc1C1CCN(CCOC(c2ccccc2)c2ccccc2)C1 (stereo not shown) [Example 13, 1-[2-diphenylmethoxy)ethyl]-3-(2-methoxyphenyl) pyrrolidine maleate] | 58 ± 5 | – | –
COc1cccc(C2CCN(CCOC(c3ccc(F)cc3)c3ccc(F)cc3)C2)c1 (stereo not shown) [Example 10, 1-[2-[bis(4-fluorophenyl)methoxy]ethyl]-3-(3-methoxyphenyl)pyrrolidine] | 59 ± 4 | > 1000 | 83
Fc1ccc(C(c2ccc(F)cc2)N2CCN(C/C=C/c3ccccc3)CC2)cc1 [flunarizine, reference compound] | 41 ± 4 | – | –
